Laboratory results taken from patent US10537561B2 (Novartis AG, priority 2011, dated 2020).

Tests used:
[1] = target: CSF-1R (Homo sapiens, UniProt P07333); assay: CSF-1R inhibition, biochemical assay
[2] = target: PDGFR-β (Homo sapiens, UniProt P09619); assay: PDGFR-β inhibition; type: biochemical; settings: read-out: PDGFR-β IC-50
[3] = system: glioma in RCAS-PDGF-B-HA/Nestin-Tv-a; Ink4a/Arf−/− mice; assay: Histologic analyses of tumors from short-term trial; type: in vivo, mouse; settings: for Apoptosis (% CC3+) / Macrophages (% CD68+) / Total DAPI+ Cells / Tumor Cells (% Olig2+) / Phagocytic Capacity / Vasculature (CD31 MVD): vs vehicle
Method: The analyses were performed on tissues from the short-term trial (see Example 5), so that tumors from the different treatment groups could be compared at the same defined endpoint. Tumor cell density was examined using the oligodendrocyte marker Olig2, which has previously been used to identify glioma cells. […] (FIG. 6A).
To isolate tissues for snap freezing in liquid nitrogen, mice were euthanized by carbon dioxide asphyxiation or fully anesthetized with avertin (2,2,2-tribromoethanol, Sigma) and cervically dislocated prior to tissue harvest. For flow cytometry, mice were fully anesthetized with avertin and transcardially perfused with 20 ml of PBS. The brain was then isolated and the tumor macrodissected from the surrounding normal tissue. For proliferation analysis, mice were injected intraperitoneally with […] of bromodeoxyuridine (BrdU; Sigma) 2 hours prior to sacrifice. To isolate tissues for frozen histology, mice were fully anesthetized with avertin, transcardially perfused with 10 ml of PBS, followed by 10 ml of 4% paraformaldehyde in PBS (PFA). The brain was postfixed in PFA overnight at 4° C. while other tissues were cryopreserved in 30% sucrose at 4° C. After post-fixation, the brain was then transferred to 30% sucrose and incubated at 4° C. until the brain was fully equilibrated and sank to the bottom of the tube (typically 2 to 3 days). All tissues were then embedded in OCT (Tissue-Tek) and 10 μm cryostat tissue sections were used for all subsequent analysis.
For immunofluorescence, 10 μm thick frozen sections were thawed and dried at room temperature and then washed in PBS. For the standard staining protocol, tissue sections were blocked in 0.5% PNB in PBS for at least 1 hour at room temperature or up to overnight at 4° C., followed by incubation in primary antibody in 0.25% PNB for 2 hours at room temperature or overnight at 4° C. Sections were then washed in PBS and incubated with the appropriate fluorophore-conjugated secondary antibody (Molecular Probes) at a dilution 1:500 in 0.25% PNB for 1 hour at room temperature. After washing in PBS, tissue sections were counterstained with DAPI (5 mg/ml stock diluted 1:5000 in PBS) for 5 minutes prior to mounting with ProLong Gold Antifade mounting media (Invitrogen).
For angiogenesis and proliferation analysis, tissue sections were first subjected to citrate buffer based antigen retrieval by submerging in antigen unmasking solution (0.94% v/v in distilled water; Vector Laboratories) and microwaving for 10 minutes on half power, followed by cooling to room temperature for at least 30 minutes. For angiogenesis analysis, tissues were then washed in PBS and blocked with mouse Ig blocking reagent (Vector Laboratories) according to the manufacturer's instructions for 1 hour at room temperature. For proliferation analysis, after antigen retrieval, tissue sections were incubated with 2M HCl for 15 minutes at room temperature to denature DNA and then in neutralizing 0.1M sodium borate buffer (pH 8.5) for 5 minutes. After PBS washes, the rest of the staining was performed according to the standard protocol.
For staining for phagocytosis analysis, 10 μm thick frozen sections were thawed and dried at room temperature and then washed in PBS. Tissue sections were blocked in 0.5% PNB in PBS for at least 1 hour at room temperature, followed by incubation in rabbit anti-cleaved caspase-3 primary antibody diluted 1:500 in 0.5% PNB overnight at 4° C. The next day, slides were washed 6 times for 5 minutes in PBS prior to incubation with goat-anti-rabbit Alexa568 secondary antibody (1:500 in 0.5% PNB) for 1 hour at room temperature. Tissue sections were then washed 6 times for 5 minutes in PBS and blocked overnight at 4° C. in a new buffer of 5% donkey serum, 3% bovine serum albumin, and 0.5% PNB in PBS. […]

[4] = target: >200 miscellaneous kinases; assay: Kinase selectivity panel; type: biochemical; settings: read-out: IC50 values for most of >200 miscellaneous kinases
[5] = system: glioma in RCAS-PDGF-B-HA/Nestin-Tv-a; Ink4a/Arf−/− mice; assay: Short-term trial, tumor volume by MRI; type: in vivo, mouse
Method: Tumor volume in the RCAS-PDGF-B-HA/Nestin-Tv-a; Ink4a/Arf^−/− mice was determined by MRI, and mice were added to the trial when this was at least 4.5 mm^3 or greater. […] MRI scans were performed on the day before treatment was initiated, at the mid-point of the treatment, and at the day before the end of the trial period.
The vehicle control, 20% captisol, was processed in the same manner.
To determine tumor volume, regions of interest (ROI) were circumscribed on T2 weighted images and their corresponding area in mm^2 was multiplied by the slice height of 0.7 mm. The total tumor volume is the sum of the ROI volume in each slice, and the volume for the first and last slice in which the tumor appear is halved to approximate the volume of a trapezoid. When tumor volume was in the range of 4.5-40 mm^3, animals were randomly assigned to treatment groups. […] A size-matched vehicle treated cohort was not included for this cohort having the larger starting tumor burden because these mice would not have been able to survive to the trial endpoint.

[6] = system: mouse GBM cell cultures (GBM1-4); assay: Mouse glioma cell line proliferation (MTT); type: cell-based
Method: (§1) For neurosphere formation the cell pellet was resuspended in neurosphere media consisting of mouse NSC Basal Media, NSC proliferation supplements, 10 ng/ml EGF, 20 ng/ml basic-FGF and 1 mg/ml Heparin (Stem Cell Technologies). Fresh media was added every 72 hours for 2 weeks. Primary neurospheres were collected, mechanically disaggregated to a single cell suspension and propagated by serial passaging. To generate glioma cell lines, secondary neurospheres were dissociated to single cell suspensions and cultivated in DMEM+10% FBS as a monolayer. Multiple glioma cell lines were derived from independent mice, denoted GBM1-4 herein. Glioma cells were infected with a pBabe-H2B-mCherry construct as described previously (O. Florey, et al., Nat Cell Biol 13, 1335 (2011)).
(§2) Cell growth rate was determined using the MTT cell proliferation kit (Roche). […] Media was changed every 48 hours. BMDM and CRL-2467 cells were supplemented with 10 ng/ml and 30 ng/ml recombinant mouse CSF-1 respectively unless otherwise indicated. 10 μl of MTT labeling reagent was added to each well and then incubated for 4 hours at 37° C., followed by the addition of 100 μl MTT solubilization reagent overnight. The mixture was gently resuspended and absorbance was measured at 595 nm and 750 nm on a spectraMax 340pc plate reader (Molecular Devices).

[7] = system: several hundred kinases in the Ambit kinase array; assay: Ambit kinase array screen; type: binding; settings: lower than 50% only against CSF-1R, PDGFRα and PDGFRβ
[8] = system: neurospheres derived from mouse RCAS-PDGF-B-HA/Nestin-Tv-a; Ink4a/Arf−/− GBMs; assay: Secondary neurosphere formation assay; type: cell-based
Method: as §1
Media was changed every 48 hours. Secondary neurosphere formation was assayed by counting the number of neurospheres obtained after 2 weeks.

[9] = system: CSF-dependent cell proliferation; assay: CSF-dependent cell proliferation; type: cell-based; settings: read-out: CSF-dependent cell proliferation IC-50
[10] = system: Bone marrow-derived macrophages (BMDMs); assay: BMDM proliferation/survival (MTT); type: cell-based, mouse
Method: as §2

[11] = system: glioma in RCAS-PDGF-B-HA/Nestin-Tv-a; Ink4a/Arf−/− mice; assay: Long-term survival trial in glioma model; type: in vivo, mouse

Sequence of PDGFR-β (P09619 33-1106, species assumed): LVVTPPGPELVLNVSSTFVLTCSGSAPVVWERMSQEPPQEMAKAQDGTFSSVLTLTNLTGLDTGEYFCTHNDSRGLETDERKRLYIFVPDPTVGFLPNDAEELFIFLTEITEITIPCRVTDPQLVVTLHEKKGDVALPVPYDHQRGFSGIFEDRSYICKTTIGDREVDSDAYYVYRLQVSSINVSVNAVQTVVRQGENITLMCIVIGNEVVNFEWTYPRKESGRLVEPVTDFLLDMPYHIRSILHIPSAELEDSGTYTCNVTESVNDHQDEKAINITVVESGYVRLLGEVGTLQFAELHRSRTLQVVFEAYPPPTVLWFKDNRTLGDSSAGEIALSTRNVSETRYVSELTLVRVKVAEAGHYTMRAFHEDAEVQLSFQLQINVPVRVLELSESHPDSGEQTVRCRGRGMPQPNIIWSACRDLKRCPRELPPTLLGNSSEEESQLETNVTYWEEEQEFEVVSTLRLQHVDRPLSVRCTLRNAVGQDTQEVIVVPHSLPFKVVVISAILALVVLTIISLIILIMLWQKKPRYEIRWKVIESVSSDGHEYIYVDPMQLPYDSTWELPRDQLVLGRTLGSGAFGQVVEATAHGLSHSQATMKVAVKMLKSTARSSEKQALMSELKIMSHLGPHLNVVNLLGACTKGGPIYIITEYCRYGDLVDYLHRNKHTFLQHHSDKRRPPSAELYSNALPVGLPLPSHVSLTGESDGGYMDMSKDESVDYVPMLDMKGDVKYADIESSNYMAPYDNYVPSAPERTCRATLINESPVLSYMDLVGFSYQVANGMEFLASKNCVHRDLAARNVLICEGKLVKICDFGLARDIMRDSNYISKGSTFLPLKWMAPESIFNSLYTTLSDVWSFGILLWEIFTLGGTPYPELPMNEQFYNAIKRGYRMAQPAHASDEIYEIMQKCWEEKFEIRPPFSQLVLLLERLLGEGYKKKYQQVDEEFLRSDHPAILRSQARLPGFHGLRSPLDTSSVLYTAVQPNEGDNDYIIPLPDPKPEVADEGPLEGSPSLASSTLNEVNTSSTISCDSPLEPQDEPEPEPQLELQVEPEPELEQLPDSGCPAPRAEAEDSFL
Sequence of CSF-1R (P07333 20-972, species assumed): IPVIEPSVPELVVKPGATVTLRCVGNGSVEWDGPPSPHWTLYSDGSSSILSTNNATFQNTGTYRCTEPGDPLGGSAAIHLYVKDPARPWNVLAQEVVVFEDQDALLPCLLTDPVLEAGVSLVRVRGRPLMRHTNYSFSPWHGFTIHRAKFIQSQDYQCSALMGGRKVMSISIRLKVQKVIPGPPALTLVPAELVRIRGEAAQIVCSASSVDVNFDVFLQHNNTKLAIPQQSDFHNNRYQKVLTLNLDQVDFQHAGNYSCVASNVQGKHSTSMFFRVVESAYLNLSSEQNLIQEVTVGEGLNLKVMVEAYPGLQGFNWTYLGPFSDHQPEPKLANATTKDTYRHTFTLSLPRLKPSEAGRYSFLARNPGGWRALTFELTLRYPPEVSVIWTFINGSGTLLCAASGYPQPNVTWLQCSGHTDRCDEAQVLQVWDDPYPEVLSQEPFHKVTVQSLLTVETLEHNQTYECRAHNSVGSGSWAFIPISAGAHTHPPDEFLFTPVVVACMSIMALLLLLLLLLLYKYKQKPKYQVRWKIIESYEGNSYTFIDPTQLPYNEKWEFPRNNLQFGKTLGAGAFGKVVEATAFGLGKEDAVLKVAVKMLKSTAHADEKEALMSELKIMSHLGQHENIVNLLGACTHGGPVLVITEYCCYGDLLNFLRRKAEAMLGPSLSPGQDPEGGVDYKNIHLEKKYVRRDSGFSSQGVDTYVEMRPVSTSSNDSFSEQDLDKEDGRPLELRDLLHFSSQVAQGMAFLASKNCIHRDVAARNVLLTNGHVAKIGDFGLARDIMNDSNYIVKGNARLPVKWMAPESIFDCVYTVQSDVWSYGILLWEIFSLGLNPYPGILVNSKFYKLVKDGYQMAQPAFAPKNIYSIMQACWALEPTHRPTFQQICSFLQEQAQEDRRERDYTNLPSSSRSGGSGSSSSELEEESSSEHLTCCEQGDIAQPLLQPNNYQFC

Question: `CCn1cc(-c2cc(Oc3ccc4nc(N[C@@H]5CCCC[C@H]5O)sc4c3)ccn2)cn1` was tested. Which IC50 [1] did it give?
Answer: 3 nM

Question: What about the IC50 [2] of the same molecule?
Answer: 1700 nM

Question: Which IC50 [1] does the source give for `Cn1cc(-c2cc(Oc3ccc4nc(N[C@H]5CCCC[C@@H]5O)sc4c3)ccn2)cn1` [Ih-D] here?
Answer: 1 nM

Question: And the IC50 [2]?
Answer: 20 nM

Question: For `CCCn1cc(-c2cc(Oc3ccc4nc(N[C@@H]5CCCC[C@H]5O)sc4c3)ccn2)cn1` [Ih-C], which IC50 [1] is on record?
Answer: 7 nM

Question: What about the IC50 [2] of the same molecule?
Answer: 1500 nM

Question: For `Cn1cc(-c2cc(Oc3ccc4nc(N[C@@H]5CCCC[C@H]5O)sc4c3)ccn2)cn1` [Ih-A], which IC50 [1] is on record?
Answer: 0.9 nM

Question: What about the IC50 [2] of the same molecule?
Answer: 740 nM

Question: What does the source list for `CCCNC(=O)c1cc(Oc2ccc3nc(N[C@@H]4CCCC[C@H]4O)sc3c2)ccn1`?
Answer: IC50 [1]: 8 nM; IC50 [2]: 7700 nM

Question: `CCNC(=O)c1cc(Oc2ccc3nc(N[C@@H]4CCCC[C@H]4O)sc3c2)ccn1` [Ig-B] was tested. Which IC50 [1] did it give?
Answer: 6 nM

Question: And the IC50 [2]?
Answer: 13900 nM

Question: How did the “Apoptosis (% CC3+)” value ([3]; BLZ945, Day 3) turn out when `CNC(=O)c1cc(Oc2ccc3nc(N[C@@H]4CCCC[C@H]4O)sc3c2)ccn1` [BLZ945] was run?
Answer: +17-fold

Question: What about the “Macrophages (% CD68+)” value ([3]; BLZ945, Day 3) of the same molecule?
Answer: +3-fold

Question: What about the “Total DAPI+ Cells” value ([3]; BLZ945, Day 3) of the same molecule?
Answer: −72%

Question: What about the “Tumor Cells (% Olig2+)” value ([3]; BLZ945, Day 3) of the same molecule?
Answer: −27%

Question: What about the “Apoptosis (% CC3+)” value ([3]; BLZ945, Day 7) of the same molecule?
Answer: +6-fold

Question: What about the “Macrophages (% CD68+)” value ([3]; BLZ945, Day 7) of the same molecule?
Answer: +2-fold

Question: And the “Phagocytic Capacity” value ([3]; BLZ945, Day 7)?
Answer: +5.0-fold

Question: What about the “Total DAPI+ Cells” value ([3]; BLZ945, Day 7) of the same molecule?
Answer: −80%

Question: What about the “Tumor Cells (% Olig2+)” value ([3]; BLZ945, Day 7) of the same molecule?
Answer: −77%

Question: What about the “Vasculature (CD31 MVD)” value ([3]; BLZ945, Day 7) of the same molecule?
Answer: −17%

Question: And the “Apoptosis (% CC3+)” value ([3]; BLZ945 Large, Day 3)?
Answer: +9-fold

Question: And the “Macrophages (% CD68+)” value ([3]; BLZ945 Large, Day 3)?
Answer: +2-fold

Question: What about the “Phagocytic Capacity” value ([3]; BLZ945 Large, Day 3) of the same molecule?
Answer: +7.1-fold

Question: What about the “Total DAPI+ Cells” value ([3]; BLZ945 Large, Day 3) of the same molecule?
Answer: −40%

Question: What about the “Tumor Cells (% Olig2+)” value ([3]; BLZ945 Large, Day 3) of the same molecule?
Answer: −14%

Question: And the “Apoptosis (% CC3+)” value ([3]; BLZ945 Large, Day 7)?
Answer: +2-fold

Question: And the “Macrophages (% CD68+)” value ([3]; BLZ945 Large, Day 7)?
Answer: +4-fold

Question: What about the “Phagocytic Capacity” value ([3]; BLZ945 Large, Day 7) of the same molecule?
Answer: +6.0-fold

Question: What about the “Total DAPI+ Cells” value ([3]; BLZ945 Large, Day 7) of the same molecule?
Answer: −65%

Question: And the “Tumor Cells (% Olig2+)” value ([3]; BLZ945 Large, Day 7)?
Answer: −73%

Question: What about the “Vasculature (CD31 MVD)” value ([3]; BLZ945 Large, Day 7) of the same molecule?
Answer: −67%

Question: What about the “level of apoptosis (CC3+)” value ([3]; earlier time point in particular) of the same molecule?
Answer: increase in apoptosis

Question: What about the “Olig2 (tumor cell density)” value ([3]; vs vehicle controls) of the same molecule?
Answer: significantly reduced

Question: And the IC50 [4]?
Answer: > 10000 nM

Question: What about the “treated animals with reduced tumor size” value ([5]; 6 days of dosing) of the same molecule?
Answer: 7 of 11

Question: What about the “treated animals with tumor volume increases over 50%” value ([5]; 6 days, of 11 animals) of the same molecule?
Answer: two

Question: What about the “tumor size by MRI” value ([5]; 7 day trial) of the same molecule?
Answer: no increase in tumor size

Question: And the “Tumor Volume (Day −1 vs Day 6)” value ([5]; BLZ945, Day 7, tumors 4.5-40 mm^3)?
Answer: +0.68%

Question: What about the “treated mice with reduction of at least 30% in tumor size” value ([5]; large tumor cohort 48.7 to 132 mm^3, 6 days) of the same molecule?
Answer: 6 of 18

Question: And the tumor volume change ([5]; large tumor cohort, 6 days)?
Answer: decreased in nearly all test animals

Question: What about the “effects on tumor cell lines established from secondary mouse GBM neurospheres” value [6] of the same molecule?
Answer: no differences

Question: What about the “activity in Ambit kinase array” value [7] of the same molecule?
Answer: lower than 50 % of control

Question: And the “formation of secondary neurospheres” value [8]?
Answer: not altered

Question: What about the “total number and size of neurospheres” value ([8]; 670 nM) of the same molecule?
Answer: unaffected

Question: What about the IC50 [9] of the same molecule?
Answer: ~67 nM

Question: What about the “rate of population doubling of BMDM cells” value ([10]; 67 nM) of the same molecule?
Answer: same effect on this rate as absence of CSF-1 stimulation

Question: What about the macrophage survival ([10]; 67 nM to 6700 nM, wild-type BMDMs) of the same molecule?
Answer: dramatically blocked macrophage survival

Question: What about the “treated cohort still alive (symptom-free survival) at trial endpoint” value ([11]; 200 mg/kg oral gavage daily, 26 weeks post-injection) of the same molecule?
Answer: 64.4%

Question: And the “mice with grade II glioma among 4 treated mice sacrificed for histology” value ([11]; 12 weeks, of 4 mice)?
Answer: one

Question: And the “tumor free mice among 4 treated mice sacrificed for histology” value ([11]; 12 weeks, of 4 mice)?
Answer: 3

Question: And the “treated animals either Grade II or tumor free” value ([11]; long-term trial)?
Answer: 80%

Question: What about the “treated animals with Grade III tumor” value ([11]; long-term trial) of the same molecule?
Answer: 20%

Question: What about the “tumor malignancy vs vehicle” value ([11]; long-term trial) of the same molecule?
Answer: significantly less malignant tumors

Question: And the “mice with no detectable lesions” value ([11]; mice alive at 26-week trial endpoint)?
Answer: 56%
